In PubChem BioAssay (NCI) one finds TGI and GI50 data, which are given here for 18 compounds.

Common to all, as to assay: DTP human tumour cell line panel, 48 h
The subject of test [1] is UACC-62 melanoma.
The subject of test [2] is OVCAR-8 ovarian.
The subject of test [3] is HL-60(TB) leukemia.
Test [4] deals with 786-0 renal.
Test [5] relates to MDA-MB-435.
Test [6] concerns NCI-H226 lung.
Test [7] has as its system HT29 colon.
The subject of test [8] is MDA-MB-231 breast.
The test system of test [9] is SK-OV-3 ovarian.
The test system of test [10] is PC-3 prostate.

Molecules are shown by their SMILES.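 Tested at 5 concentrations; 48 h exposure; 96-well plates; endpoints linearly interpolated, else capped at highest concentration. Here, GI50 denotes the concentration required for 50% inhibition of growth. At the TGI there is no net growth.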

Turning to `O=C[C@@H](CO)O[C@H](C=O)c1c[nH]c(=O)[nH]c1=O`, the total growth inhibition concentration (TGI) in test [1] came to 219 µM; in test [2], 352 µM; in [3], 376 µM; in test [4] it was 1310 µM; in test [5], 155 µM; in test [6] it was 552 µM. Moreover, the TGI came out at 595 µM in test [7], 389 µM in [8], 473 µM in [9] and 790 µM in test [10].
Regarding `C/C(=N\NC(=O)c1sc(=S)n(C)c1N)c1cc2ccccc2o1`, the GI50 in test [1] was 18.5 µM; in test [2], 15.3 µM; in [3], 26 µM; in test [4], 14.9 µM; in [5], 8.65 µM; in [6] it was 18.7 µM. The GI50 in [7] was 5.05 µM; in test [8] it was 4.86 µM; in test [9] it was 20.9 µM; in test [10], 9.73 µM. The total growth inhibition concentration (TGI) in test [1] is 61.8 µM; in [2], 33.8 µM; in test [3], above 100 µM; in test [4] it was 29.8 µM; in test [5] it was 32 µM; in test [6], 40.4 µM. Also, the TGI in test [7] was determined as 18.9 µM; in [8], 16.5 µM; in [9], 55.6 µM; in test [10], 32.7 µM.
Consider `Cc1c2cc[n+](C)cc2c(C)c2c1sc1ccccc12`, for which the concentration for total growth inhibition (TGI) in [1] was 4.25 µM; in test [2] it was 4.8 µM; in test [3], 28.4 µM; in test [4], 2.9 µM; in test [5] it was 6.18 µM; in test [6], 2.11 µM. Moreover, the total growth inhibition concentration (TGI) in test [7] was 25.4 µM; in test [8], 11.2 µM; in test [9], 14.3 µM; in [10], 13.1 µM.
As to `O=C(Nc1ccc(Cl)c(Cl)c1)c1cccc(NC2=C(Cl)C(=O)N(Cc3ccccc3)C2=O)c1`, the GI50 is 37.1 µM in test [1]; 31.6 µM in [2]; 45.8 µM in test [3]; 48.4 µM in test [4]; 35.7 µM in test [5]; 35.5 µM in test [6]. Besides, the GI50 in test [7] was 59.6 µM; in test [8] it was 26.4 µM; in test [9] it was above 100 µM; in test [10] it was 27.2 µM. In addition, the total growth inhibition concentration (TGI) in test [1] was above 100 µM; in test [2], 89.5 µM; in test [3], above 100 µM; in [4] it was above 100 µM; in [5] it was above 100 µM; in [6] it was above 100 µM. The total growth inhibition concentration (TGI) in test [7], in test [8], in test [9] and in test [10] was above 100 µM in each case.
On to `CC1(C)CC(=O)C(CCC(=O)/C=C/c2ccccc2)C(=O)C1`, for which the concentration for total growth inhibition (TGI) in [1], in [2], in [3], in test [4], in test [5] and in test [6] was above 100 µM in each case. The TGI in [7], in test [8], in test [9] and in test [10] was above 100 µM each time.
As for `COc1ccc2[nH]c(=O)c3c4ccccc4cn3c2c1`, the GI50 in test [1] is 0.345 µM; in [2] it was 1.09 µM; in [3] it was 0.186 µM; in test [4] it was 0.553 µM; in test [5] it was 0.154 µM; in [6], 3.47 µM. Further, the 50% growth inhibitory concentration (GI50) in test [7] was 0.375 µM; in test [8], 1.24 µM; in test [9], 0.451 µM; in test [10], 0.429 µM. In addition, the TGI is 1.4 µM in test [1]; 3.29 µM in [2]; 0.548 µM in test [3]; 1.95 µM in test [4]; 0.411 µM in test [5]; 18 µM in test [6]. Besides, the TGI in test [7] is 1.44 µM; in [8], 5.85 µM; in test [9] it was 11.5 µM; in test [10] it was 4.08 µM.
Take `Cc1cc2nc(C(C)C(=O)c3ccc(Cl)cc3)c(=O)[nH]c2cc1C` (configuration not stated): the TGI in test [1] was above 100 µM; in [2], above 100 µM; in [3], above 100 µM; in [4], 92.3 µM; in test [5], 49.6 µM; in [6], 95.1 µM. In addition, the TGI in test [7] is 66.4 µM; in test [8] it was above 100 µM; in [9] it was above 100 µM; in test [10], above 100 µM.
Consider `CCc1nc(N)nc(N)c1-c1ccc(NCCN)c([N+](=O)[O-])c1`, for which the TGI in [1], in test [2], in [3], in test [4], in test [5] and in [6] was above 100 µM each time. Also, the TGI in test [7], in test [8], in test [9] and in [10] was above 100 µM in each case.
On to `CC[C@]12CCCN3CCc4c(n(c5ccccc45)C(=O)C1)[C@@H]32`, for which the concentration for total growth inhibition (TGI) in [1] was above 100 µM; in [2], above 100 µM; in [3], 8.51 µM; in [4] it was above 56.2 µM; in [5], 4.41 µM; in [6], above 100 µM. The TGI in test [7] was above 52.7 µM; in test [8] it was above 86.3 µM; in test [9] it was 87.7 µM; in test [10] it was above 100 µM.
In the case of `COc1cc(C(=O)/C=C/c2c(C)n([O-])c3ccc(C)cc3[n+]2=O)cc(OC)c1OC`, the GI50 in test [1] is 8.46 µM; in test [2] it was 3.46 µM; in test [3], 2.32 µM; in test [4], 7.62 µM; in [5], 6.47 µM; in test [6], 30.6 µM. Also, the GI50 in [7] was 4.84 µM; in test [8], 10.6 µM; in test [9] it was 32.7 µM; in test [10], 12.9 µM. Moreover, the TGI is 32.4 µM in [1]; above 56.4 µM in test [2]; 6.15 µM in [3]; 21.7 µM in [4]; above 63.4 µM in test [5]; above 100 µM in [6]. Further, the concentration for total growth inhibition (TGI) is 16.5 µM in test [7], above 100 µM in [8], above 100 µM in test [9] and above 59.3 µM in [10].
As to `CCCCC[C@H](O)/C=C/[C@@H]1[C@@H](C/C=C\CCCC(=O)O)[C@@H](O)C[C@H]1O`, the GI50 in test [1], in test [2], in test [3], in test [4], in test [5] and in [6] was above 100 µM throughout. Also, the GI50 in [7], in test [8], in [9] and in test [10] was above 100 µM each time. The TGI in test [1], in test [2], in test [3], in test [4], in test [5] and in test [6] was above 100 µM throughout. Besides, the total growth inhibition concentration (TGI) in [7], in [8], in [9] and in [10] was above 100 µM in each case.
With `C=CC[n+]1c(/C=C/C=C2\N(C)c3ccccc3C2(C)C)sc2ccc(OC)cc21`, the GI50 in [1] is 0.195 µM; in [2] it was 0.327 µM; in test [3], 0.156 µM; in [4] it was 0.363 µM; in [5], 0.256 µM; in [6], 0.282 µM. Besides, the 50% growth inhibitory concentration (GI50) is 0.272 µM in [7], 0.272 µM in test [8], 0.21 µM in [9] and 0.215 µM in [10]. In addition, the TGI amounted to 2.65 µM in [1]; 33.8 µM in [2]; 0.732 µM in test [3]; 18.8 µM in test [4]; 10.6 µM in test [5]; 13 µM in test [6]. Further, the concentration for total growth inhibition (TGI) in test [7] was determined as 6.05 µM; in test [8], 1.65 µM; in [9], 0.769 µM; in test [10], 12.2 µM.
On to `O=C(NC1CCN(Cc2ccccc2)CC1)c1cc(-c2ccncc2)nc2ccc(Cl)cc12`, for which the GI50 was 20.6 µM in test [1]; 22.5 µM in [2]; 17.3 µM in test [3]; 6.84 µM in [4]; 15 µM in test [5]; 30.2 µM in [6]. The GI50 in [7] was 4.7 µM; in [8], 4.5 µM; in test [9] it was 23.3 µM; in test [10], 13.6 µM. Also, the TGI in test [1] was above 85.3 µM; in [2] it was above 72.9 µM; in test [3], 59.6 µM; in test [4], 28.7 µM; in test [5], above 88.7 µM; in test [6], above 100 µM. Besides, the concentration for total growth inhibition (TGI) is 19.7 µM in test [7], above 59.9 µM in [8], above 100 µM in [9] and above 100 µM in test [10].
With `Cc1ccc([N+](=O)[O-])cc1NC(=O)Nc1cccc(F)c1`, the GI50 in test [1] is 4.55 µM; in test [2], 4.24 µM; in test [3], 4.02 µM; in test [4] it was 14.1 µM; in test [5], 3.8 µM; in test [6] it was 7.54 µM. The GI50 in test [7] was 4.35 µM; in test [8] it was 13.3 µM; in test [9], 13.1 µM; in [10], 3.44 µM. In addition, the TGI in test [1], in test [2], in [3], in test [4], in test [5] and in test [6] was above 100 µM in each case. The TGI is above 100 µM in test [7], 96.6 µM in test [8], 49.4 µM in [9] and above 100 µM in test [10].
Take `O=C1c2ccccc2-c2c1c1ccccc1c(=O)n2CCCCNCCCn1c2c(c3ccccc3c1=O)C(=O)c1ccccc1-2`: the GI50 was 0.445 µM in [1]; 0.256 µM in test [2]; 8.19 µM in [3]; 0.0318 µM in test [4]; 0.851 µM in test [5]; 0.375 µM in test [6]. In addition, the 50% growth inhibitory concentration (GI50) in [7] is 0.0929 µM; in test [8], 0.319 µM; in test [9], 5.35 µM; in test [10], 0.245 µM. In addition, the concentration for total growth inhibition (TGI) in test [1] amounted to 3.22 µM; in test [2], 1.5 µM; in test [3], 23.3 µM; in [4], 0.699 µM; in test [5], 4.32 µM; in test [6], 3.11 µM. The TGI amounted to 8.95 µM in [7], 1.34 µM in test [8], 50 µM in [9] and 1.05 µM in [10].
In the case of `COc1ccc2oc(=O)cc(C(c3ccc[nH]3)c3ccc[nH]3)c2c1`, the concentration for 50% growth inhibition (GI50) was 0.152 µM in [1]; 0.116 µM in test [2]; below 0.0502 µM in test [3]; 0.281 µM in test [4]; 0.208 µM in [5]; 0.146 µM in [6]. Also, the GI50 in test [7] is 0.104 µM; in test [8] it was 0.109 µM; in [10], 0.108 µM. Also, the TGI in [1] turned out to be 14 µM; in test [2], 14.2 µM; in test [4], 11.5 µM; in test [5], 0.485 µM; in [6], 24.4 µM; in test [7], 0.659 µM. The values for the TGI in test [8] and in test [10] were 6.05 µM and 15.5 µM, respectively.
Consider `Cc1nc(-c2cccc(Nc3nc(-c4ccc(Cl)cc4)cs3)c2)cs1`, for which the GI50 in [1] is 6.83 µM; in test [2] it was 10.1 µM; in [3] it was 19.8 µM; in [4] it was 10.9 µM; in test [5] it was 10.4 µM; in [8], 11.1 µM. The GI50 is 11.9 µM in [9] and 8.96 µM in test [10]. The TGI was 15 µM in [1]; 23.2 µM in test [2]; above 50 µM in test [3]; 21.8 µM in [4]; 27.4 µM in test [5]; 23.3 µM in test [8]. Besides, the TGI was 25.4 µM in [9] and 21.2 µM in [10].
On to `Cc1ccc(S(=O)(=O)OC2CCN(C)CC2)cc1`, for which the TGI in test [1] was above 100 µM; in [2], above 100 µM; in [3], 37.3 µM; in test [4], above 100 µM; in test [5], above 100 µM; in test [7] it was above 100 µM. Besides, the TGI in test [8], in test [9] and in test [10] was above 100 µM each time.

The term TGI denotes the concentration giving total growth inhibition. A higher TGI goes with lower sensitivity of the cells. A word on the GI50: it is the concentration at which growth is held to half of that of the control.
